Data as given in patent publication US12016353B2, “Compositions and methods for aquaculturing” (The State of Israel, Ministry of Agriculture & Rural …, priority 2017, dated 2024).

Assays:
Assay type in all cases: in vivo, Sparus aurata
[1] = tested on: PepT1; experiment: Sustained effect of dietary butyrate on PepT1 mRNA expression in gilthead sea bream; conditions: for PepT1 transcription levels after butyrate feeding had ceased: 6 days after feeding butyrate ceased
Procedure: (§1) The experimental set up consisted of 200 L circular tanks in a flow through, filtered (10 μm) ambient seawater (40‰) system under a natural photoperiod of about 12 h/12 h (dark/light) where the water temperature ranged between 24.8-25.4° C. Experimental diets were offered to the fish twice a day (9:00; 14:00).
For determining whether (1) an effect of dietary butyrate on PepT1 transcriptional level is sustained after its supplementation has stopped and (2) to investigate an effect of dietary butyrate on Cdx1b expression. To this end another study was carried out. In this trial, fish having an average weight of 27.14±0.47 g (mean±SEM) were stocked at a density of 30 fish per tank with two replicate tanks per treatment. Fish were fed with the experimental diets (Table 4) including 1% taurine and 0, 0.8 and 1.6% of sodium butyrate for 8 days before its supplementation was stopped and all of the dietary groups started receiving the 0% sodium butyrate containing diet. Four fish from each tank (8 fish per dietary treatment) were sampled for their proximal intestine total RNA at days 9, 12 and 15 of the trial.
Fish were euthanized with an overdose of MS2-22 (Sigma Aldrich, USA) followed by a swift decapitation and then dissected for the removal of their gastrointestinal tract. For total RNA, the 1st segment of the proximal intestine (approx. 1 cm) was cut, immediately frozen and stored at −80° C. until RNA extraction. For histology, pieces of the proximal intestine (approx. 0.6 cm) were sampled, placed in 15 ml Falcon tubes containing 10% neutral buffered formalin (NBF) and stored at room temperature until processed. For immunohistochemistry (IHC-P) staining, pieces of proximal intestine (approx. 0.6 cm) were sampled, placed in 1.7 ml microcentrifuge tubes containing 4% paraformaldehyde (PFA) and stored at 4° C. for overnight fixation. After fixation, the intestinal samples were rinsed twice and washed three times (10 min each) with PBST 0.8% (PBS with 0.8% Triton x-100, Sigma Aldrich, USA). Following this, the samples were gradually dehydrated by one 5 min wash with 50% methanol in PBST followed by three more washings with 100% methanol and stored in 100% methanol at −20° C. until carrying out the staining procedure. After the removal of the gastrointestinal tract, the remaining carcasses of sampled fish were put into nylon bags and stored at −20° C. until proximate analysis. In order to calculate the gut index (GI), fish were weighed prior to the removal of their gastrointestinal tract. The intestines were separated from the stomach and pyloric caeca and then aligned, by forceps, against a ruler for measuring their length (mm). For each fish, gut index was calculated using the following formula: Gut index=100×Body weight (g)/(intestine length (mm))^3.
(§2) Total RNA extraction from samples of the proximal intestine was carried out using BioTri reagent (Biolab, Israel) according to the manufacturer's instructions. For determining total RNA quality and concentration, 2 μl from each sample diluted with 18 μl of DEPC treated water (1:10) were loaded onto a 384 well microplate (Greiner Bio-One, Austria). In each sample the 260/280 ratio, 260/230 ratio and RNA concentration were obtained by plate reader and Gen5 software (Synergy HT, BioTek, USA). For each RNA extraction procedure, the integrity of the extracted RNA was evaluated by electrophoresis on 1.2% agarose gel stained with GelRed (Biotium, USA). […]

[2] = tested on: proximal intestine epithelium; experiment: Histological analysis of proximal intestine cross sections of sea bream (inner/outer perimeter ratio); conditions: 1.6% sodium butyrate, independent of dietary protein level, P<0.001, FIG. 9
Procedure: During the 13 week trial, fish were weighed approximately every two weeks. The data were used to calculate growth rates and to adjust the daily rations of feed. At the end of the trial, 6 fish from each tank were sampled for calculating gut index and extracting their proximal intestine total RNA. Two other fish were sampled for histology and body composition. All sampling procedures were performed as described.
Fish were euthanized with an overdose of MS2-22 (Sigma Aldrich, USA) followed by a swift decapitation and then dissected for the removal of their gastrointestinal tract. For total RNA, the 1st segment of the proximal intestine (approx. 1 cm) was cut, immediately frozen and stored at −80° C. until RNA extraction. […] For each fish, gut index was calculated using the following formula: Gut index=100×Body weight (g)/(intestine length (mm))^3.
Standard protocol for histological analysis was implemented (Grate et al., 2003). […] Intestinal cross sections were photographed under a stereo zoom microscope (Axio Zoom.V16, Zeiss, Germany) and the inner and outer perimeter (mm) of the sections were measured using ImageJ software (imagej(dot)nih(dot)gov/ij/). […] The calculated ratio (inner perimeter/outer perimeter) for each section was then averaged for each slide/sample and analyzed for differences between treatments.

[3] = tested on: PCNA; experiment: PCNA mRNA expression in sea bream proximal intestine (intestinal epithelial cell proliferation); conditions: 0.8% sodium butyrate diet for 9 days, 1.5 h after feeding, P<0.05, FIG. 6
Procedure: Fish having an average weight of 14.49±0.2 g (mean±SEM) were stocked in 15 tanks at a density of 30 fish tank^−1 with 5 replicate tanks (assigned as A-E) dietary treatment^−1. […]
as §2
Specific real-time PCR primers (Table 6) were designed for amplifying the sea bream PepT1 (accession no. GU733710.1), PCNA (accession no. CX734891.1), CCK, Cdx1b and β-actin (accession no. AY362763.1) transcripts. Quantification of target gene transcripts of different treatments was achieved by PCR reaction mix (10 μl) containing SYBR Green dye (Quanta, Perfecta; SYBR Green FastMix, Low ROX; 95074-012), template cDNA and 500 nM of target specific primers in a quantitative PCR system (Applied Biosystems, 7500 Fast Real Time PCR System). […]

[4] = tested on: PepT1; experiment: PepT1 pattern of expression during the day in gilthead sea bream (10 day trial); conditions: diet with 0.8% sodium butyrate and 1% taurine versus control, FIG. 4
Procedure: as §1
Fish having an average weight of 14.49±0.2 g (mean±SEM) were stocked in […] at a density of 30 fish tank^−1 with 5 replicate tanks (assigned as A-E) dietary treatment^−1. During the 10 day trial, fish were offered the experimental diets (Table 4) with 1% taurine and with 0 and 0.8% of sodium butyrate (Sigma Aldrich, USA). […]
Fish were euthanized with an overdose of MS2-22 (Sigma Aldrich, USA) followed by a swift decapitation and then dissected for the removal of their gastrointestinal tract. […] For each fish, gut index was calculated using the following formula: Gut index=100×Body weight (g)/(intestine length (mm))^3.
Total RNA extraction from samples of the proximal intestine was carried out using BioTri reagent (Biolab, Israel) according to the manufacturer's instructions. […] In each sample the 260/280 ratio, 260/230 ratio and RNA concentration were obtained by plate reader and Gen5 software (Synergy HT, BioTek, USA). For each RNA extraction procedure, the integrity of the extracted RNA was evaluated by electrophoresis on 1.2% agarose gel stained with GelRed (Biotium, USA). […]

## CCCC(=O)[O-].[Na+] [sodium butyrate]
[1]; 0.8% butyrate for 8 days, FIG. 5B
  PepT1 transcription levels after butyrate feeding had ceased: remained higher than the control
[1]; 0.8% butyrate in diet for 8 days versus control, FIG. 5A
  PepT1 transcription: significantly (P<0.001) increased
[1]; 1.6% butyrate for 8 days, FIG. 5C
  PepT1 transcription levels after butyrate feeding had ceased: remained higher than the control
[1]; 1.6% butyrate in diet for 8 days versus control, FIG. 5A
  PepT1 transcription: significantly (P<0.001) increased
[1]; 1.6% butyrate in diet for 8 days, FIG. 5A
  PepT1 transcription, increase over control: more than 2 fold
[2]
  expansion of the inner to outer perimeter ratio of the proximal intestine: approximately 30%
[3]
  PCNA expression relative to control: more than 2 fold
[4]
  PepT1 expression prior to the morning feeding: significantly (P<0.01) higher PepT1 expression
